In the test the target is T1, human P2X4 (Homo sapiens, UniProt Q99571).
T1 sequence (Q99571 1-388): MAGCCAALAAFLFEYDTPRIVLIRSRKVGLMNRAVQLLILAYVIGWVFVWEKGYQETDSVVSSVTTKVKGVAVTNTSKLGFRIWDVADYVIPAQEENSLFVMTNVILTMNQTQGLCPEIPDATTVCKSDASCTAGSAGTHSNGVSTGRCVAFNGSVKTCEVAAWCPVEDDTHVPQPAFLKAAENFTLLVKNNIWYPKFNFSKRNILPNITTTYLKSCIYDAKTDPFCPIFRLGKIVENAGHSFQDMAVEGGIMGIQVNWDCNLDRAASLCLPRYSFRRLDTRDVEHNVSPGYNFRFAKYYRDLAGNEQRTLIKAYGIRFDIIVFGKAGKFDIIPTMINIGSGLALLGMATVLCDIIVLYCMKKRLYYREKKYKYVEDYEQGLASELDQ
Kind of test: Human P2X4 HEK Cell FLIPR Assay. Conditions: agonist Bz-ATP at EC80; for Emax: HEK293, HEK293 cells, percentage of maximal inhibition, read-out: Human P2X4 HEK Cells (FLIPR Assay) avg Efficacy [%]; for IC50: HEK293 cells, individual values listed where some fall outside detection range. It is filed as cell-based. In a few lines: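 HEK293 cells stably expressing human P2X4, Fluo8-AM loaded 30 min at 37° C, then compound 30 min at room temperature (0.5% DMSO, pH 7.4 buffer with 1.8 mM CaCl2). Bz-ATP at its daily-determined EC80 added; calcium fluorescence read over 120 sec; IC50 from peak RFU normalized to agonist control, triplicates.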

The IC50 is the concentration at which inhibition is half-maximal. On to `NS(=O)(=O)c1cc(NC(=O)Cc2ccc(F)cc2Cl)ccc1-c1cnn(C2CC2)c1` [Example 278, 2-(2-Chloro-4-fluorophenyl)-N-[4-(1-cyclopropyl-1H-pyrazol-4-yl)-3-sulfamoyl-phenyl]acetamide], for which the Emax is 102% and the IC50 came to 93 nM.
For `NS(=O)(=O)c1cc(NC(=O)Cc2ccccc2Cl)ccc1-c1cnn(CCOC(F)(F)F)c1` [Example 279, 2-(2-Chlorophenyl)-N-(3-sulfamoyl-4-{1-[2-(trifluoromethoxy)ethyl]-1H-pyrazol-4-yl}phenyl)acetamide], in that order: 96% and 61 nM.
Taken in the same sequence, the figures for `NS(=O)(=O)c1cc(NC(=O)Cc2ccccc2Cl)ccc1-c1cnn(C2CCC2)c1` [Example 280, 2-(2-Chlorophenyl)-N-[4-(1-cyclobutyl-1H-pyrazol-4-yl)-3-sulfamoylphenyl]acetamide] were 101% and 60 nM.
For `NS(=O)(=O)c1cc(NC(=O)Cc2ccccc2Cl)ccc1-c1cnn(CCN2CCCC2)c1` [Example 281, 2-(2-Chlorophenyl)-N-(4-{1-[2-(pyrrolidin-1-yl)ethyl]-1H-pyrazol-4-yl}-3-sulfamoyl-phenyl)acetamide], in that order: 76% and 481 nM.
As to `N#Cc1cncc(-c2ccc(NC(=O)Cc3ccccc3Cl)cc2S(N)(=O)=O)c1` [Example 282, 2-(2-Chlorophenyl)-N-[4-(5-cyanopyridin-3-yl)-3-sulfamoylphenyl]acetamide], the Emax is 80% and the IC50 is 56 nM.
Taken in the same sequence, the figures for `NS(=O)(=O)c1cc(NC(=O)Cc2ccccc2Cl)ccc1-c1cnn(CC2CCO2)c1` (stereo not shown) [Example 283, 2-(2-Chlorophenyl)-N-(4-{1-[oxetan-2-ylmethyl]-1H-pyrazol-4-yl}-3-sulfamoylphenyl)-acetamide] were 94% and 60 nM.
Taken in the same sequence, the figures for `NS(=O)(=O)c1cc(NC(=O)Cc2ccccc2Cl)ccc1-c1cnc(OCC(F)(F)F)nc1` [Example 284, 2-(2-Chlorophenyl)-N-{3-sulfamoyl-4-[2-(2,2,2-trifluoroethoxy)pyrimidin-5-yl]phenyl}-acetamide] were 94% and 54 nM.
Taken in the same sequence, the figures for `COc1ncc(-c2ccc(NC(=O)Cc3ccccc3Cl)cc2S(N)(=O)=O)cn1` [Example 285, 2-(2-Chlorophenyl)-N-[4-(2-methoxypyrimidin-5-yl)-3-sulfamoylphenyl]acetamide] were 97% and 246 nM.
Regarding `CC(C)OCCn1cc(-c2ccc(NC(=O)Cc3ccccc3Cl)cc2S(N)(=O)=O)cn1` [Example 286, 2-(2-Chlorophenyl)-N-(4-{1-[2-(propan-2-yloxy)ethyl]-1H-pyrazol-4-yl}-3-sulfamoylphenyl)acetamide], the Emax was 87% and the IC50 was determined as 6 nM.
Taken in the same sequence, the figures for `CC(C)(O)CCn1cc(-c2ccc(NC(=O)Cc3ccccc3Cl)cc2S(N)(=O)=O)cn1` [Example 287, 2-(2-Chlorophenyl)-N-{4-[1-(3-hydroxy-3-methylbutyl)-1H-pyrazol-4-yl]-3-sulfamoyl-phenyl}acetamide] were 78% and 31 nM.
For `Cn1nc(-c2ccc(NC(=O)Cc3ccccc3Cl)cc2S(N)(=O)=O)cc1C(C)(C)O` [Example 288, 2-(2-Chlorophenyl)-N-{4-[5-(2-hydroxypropan-2-yl)-1-methyl-1H-pyrazol-3-yl]-3-sulfamoylphenyl}acetamide], the Emax came out at 68% and the 50% inhibitory concentration (IC50) is 275 nM.
In the case of `NS(=O)(=O)c1cc(NC(=O)Cc2ccccc2Cl)ccc1-c1cncc(OC(F)F)c1` [Example 289, 2-(2-Chlorophenyl)-N-{4-[5-(difluoromethoxy)pyridin-3-yl]-3-sulfamoylphenyl}acetamide], the Emax was determined as 89% and the concentration for half-maximal inhibition (IC50) is 6 nM.
For `COc1cnc(Cl)c(-c2ccc(NC(=O)Cc3ccccc3Cl)cc2S(N)(=O)=O)c1` [Example 290, N-[4-(2-Chloro-5-methoxypyridin-3-yl)-3-sulfamoylphenyl]-2-(2-chlorophenyl)acetamide], in that order: 81% and 36 nM.
For `NS(=O)(=O)c1cc(NC(=O)Cc2ccccc2Cl)ccc1-c1cnn(CCO)c1` [Example 291, 2-(2-Chlorophenyl)-N-{4-[1-(2-hydroxyethyl)-1H-pyrazol-4-yl]-3-sulfamoylphenyl}acetamide], in that order: 95% and 100 nM.
For `CC(C)(C)c1cc(-c2ccc(NC(=O)Cc3ccccc3Cl)cc2S(N)(=O)=O)n[nH]1` [Example 292, N-[4-(5-tert-Butyl-1H-pyrazol-3-yl)-3-sulfamoylphenyl]-2-(2-chlorophenyl)acetamide], in that order: 87% and 58 nM.
Regarding `NS(=O)(=O)c1cc(NC(=O)Cc2ccccc2Cl)ccc1-c1cnn(Cc2ccccc2)c1` [Example 293, N-[4-(1-Benzyl-1H-pyrazol-4-yl)-3-sulfamoylphenyl]-2-(2-chlorophenyl)acetamide], the Emax was 75% and the IC50 came to 76 nM.
For `Cc1cc(-c2ccc(NC(=O)Cc3ccccc3Cl)cc2S(N)(=O)=O)cnn1` [Example 294, 2-(2-Chlorophenyl)-N-[4-(6-methylpyridazin-4-yl)-3-sulfamoylphenyl]acetamide], in that order: 75% and 174 nM.
Taken in the same sequence, the figures for `NS(=O)(=O)c1cc(NC(=O)Cc2ccccc2Cl)ccc1-c1cccc(C(F)(F)F)n1` [Example 295, 2-(2-Chlorophenyl)-N-{3-sulfamoyl-4-[6-(trifluoromethyl)pyridin-2-yl]phenyl}acetamide] were 9% and > 25000 nM.
For `NS(=O)(=O)c1cc(NC(=O)Cc2ccccc2F)ccc1-c1cnn(C(F)F)c1` [Example 296, N-{4-[1-(Difluoromethyl)-1H-pyrazol-4-yl]-3-sulfamoylphenyl}-2-(2-fluorophenyl)acetamide], in that order: 87% and 136 nM.
Take `NS(=O)(=O)c1cc(NC(=O)Cc2ccccc2Cl)cnc1-c1cnn(C(F)F)c1` [Example 297, 2-(2-Chlorophenyl)-N-{6-[1-(difluoromethyl)-1H-pyrazol-4-yl]-5-sulfamoylpyridin-3-yl}acetamide]: the Emax was 87% and the IC50 is 32 nM.
For `Cc1cc(-c2ccc(NC(=O)Cc3ccccc3Cl)cc2S(N)(=O)=O)cnc1Cl` [Example 298, N-[4-(6-Chloro-5-methylpyridin-3-yl)-3-sulfamoylphenyl]-2-(2-chlorophenyl)acetamide], in that order: 104% and 108 nM.
Taken in the same sequence, the figures for `NS(=O)(=O)c1cc(NC(=O)Cc2ccccc2Cl)ccc1-c1cnc(NC2CC2)nc1` [Example 299, 2-(2-Chlorophenyl)-N-{4-[2-(cyclopropylamino)pyrimidin-5-yl]-3-sulfamoylphenyl}acetamide] were 88% and 203 nM.
Taken in the same sequence, the figures for `NS(=O)(=O)c1cc(NC(=O)Cc2ccccc2Cl)ccc1-c1cnn(C2CCOC2)c1` (stereo not shown) [Example 300, 2-(2-Chlorophenyl)-N-{3-sulfamoyl-4-[1-(tetrahydrofuran-3-yl)-1H-pyrazol-4-yl]phenyl}acetamide] were 100% and 27 nM.
Regarding `CNc1ncc(-c2ccc(NC(=O)Cc3ccccc3Cl)cc2S(N)(=O)=O)cn1` [Example 301, 2-(2-Chlorophenyl)-N-{4-[2-(methylamino)pyrimidin-5-yl]-3-sulfamoylphenyl}acetamide], the Emax was 74% and the IC50 was 10 nM.
For `Cn1cc(-c2ncc(NC(=O)Cc3ccccc3Cl)cc2S(N)(=O)=O)cn1` [Example 302, 2-(2-Chlorophenyl)-N-[6-(1-methyl-1H-pyrazol-4-yl)-5-sulfamoylpyridin-3-yl]acetamide], in that order: 97% and 56 nM.
Taken in the same sequence, the figures for `NS(=O)(=O)c1cc(NC(=O)Cc2ccccc2Cl)ccc1-c1cnn(CC(F)F)c1` [Example 303, 2-(2-Chlorophenyl)-N-{4-[1-(2,2-difluoroethyl)-1H-pyrazol-4-yl]-3-sulfamoylphenyl}acetamide] were 91% and 97 nM.
For `NS(=O)(=O)c1cc(NC(=O)Cc2ccccc2C(F)(F)F)ccc1-c1cncc(C(F)(F)F)c1` [Example 304, N-{3-Sulfamoyl-4-[5-(trifluoromethyl)pyridin-3-yl]phenyl}-2-[2-(trifluoromethyl)phenyl]acetamide], in that order: 65% and 73 nM.
With `NS(=O)(=O)c1cc(NC(=O)Cc2ccccc2Cl)cnc1-c1cncc(C(F)(F)F)c1` [Example 305, 2-(2-Chlorophenyl)-N-[3-sulfamoyl-5′-(trifluoromethyl)-2,3′-bipyridin-5-yl]acetamide], the Emax stood at 49% and the half-maximal inhibitory concentration (IC50) stood at 21 nM.
Taken in the same sequence, the figures for `NS(=O)(=O)c1cc(NC(=O)Cc2ccccc2Cl)ccc1-c1cnc(C(F)(F)F)nc1` [Example 306, 2-(2-Chlorophenyl)-N-{3-sulfamoyl-4-[2-(trifluoromethyl)pyrimidin-5-yl]phenyl}acetamide] were 80% and 278 nM.

The record behind these values is patent publication US11524938B2, “Aromatic sulfonamide derivatives” (Bayer Pharma Aktiengesellschaft, priority 2016, dated 2022).
